# According to PubChem BioAssay (NCI):
#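 Cells were grown in 96-well plates and exposed to each compound for 48 hours at five concentrations; endpoints were interpolated linearly between bracketing concentrations, or set to the highest concentration if not reached. TGI is the concentration that stops growth completely.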
# Columns and labels:
# Assay in all cases: NCI tumour cell line growth inhibition, 48 h
# KM12 colon = test system: KM12 colon
# NCI-H226 lung = test system: NCI-H226 lung
# BT-549 breast = test system: BT-549 breast
# OVCAR-5 ovarian = test system: OVCAR-5 ovarian
# A498 renal = test system: A498 renal
# DU-145 prostate = test system: DU-145 prostate
# OVCAR-8 ovarian = test system: OVCAR-8 ovarian
# IGROV1 ovarian = test system: IGROV1 ovarian
# MALME-3M melanoma = test system: MALME-3M melanoma
# HOP-62 NSCLC = test system: HOP-62 NSCLC
# NCI/ADR-RES ovarian = test system: NCI/ADR-RES ovarian
# 786-0 renal = test system: 786-0 renal
# OVCAR-4 ovarian = test system: OVCAR-4 ovarian
# HOP-92 NSCLC = test system: HOP-92 NSCLC
# HCT-116 colon = test system: HCT-116 colon
# OVCAR-3 ovarian = test system: OVCAR-3 ovarian
# ACHN renal = test system: ACHN renal
# NCI-H522 lung = test system: NCI-H522 lung
# UACC-62 melanoma = test system: UACC-62 melanoma
# M14 melanoma = test system: M14 melanoma
# SK-OV-3 ovarian = test system: SK-OV-3 ovarian
# SNB-75 CNS = test system: SNB-75 CNS
# U251 CNS = test system: U251 CNS
# SK-MEL-28 melanoma = test system: SK-MEL-28 melanoma
# SK-MEL-2 melanoma = test system: SK-MEL-2 melanoma
# COLO 205 colon = test system: COLO 205 colon
# SF-295 CNS = test system: SF-295 CNS
# HL-60(TB) leukemia = test system: HL-60(TB) leukemia
# A549 NSCLC = test system: A549 NSCLC
# NCI-H23 lung = test system: NCI-H23 lung
# RXF 393 renal = test system: RXF 393 renal
# CAKI-1 renal = test system: CAKI-1 renal
# T-47D breast = test system: T-47D breast
# SF-268 CNS = test system: SF-268 CNS
# SR leukemia = test system: SR leukemia
# PC-3 prostate = test system: PC-3 prostate
# SW-620 colon = test system: SW-620 colon
# MCF7 breast = test system: MCF7 breast
# MDA-MB-231 breast = test system: MDA-MB-231 breast
# HT29 colon = test system: HT29 colon
# TK-10 renal = test system: TK-10 renal
# SF-539 CNS = test system: SF-539 CNS
# EKVX NSCLC = test system: EKVX NSCLC
# SK-MEL-5 melanoma = test system: SK-MEL-5 melanoma
# SN12C renal = test system: SN12C renal
# HCT-15 colon = test system: HCT-15 colon
# HCC-2998 colon = test system: HCC-2998 colon
# MDA-MB-435 = test system: MDA-MB-435
# HS 578T breast = test system: HS 578T breast
# NCI-H460 lung = test system: NCI-H460 lung
# K-562 leukemia = test system: K-562 leukemia
# MOLT-4 leukemia = test system: MOLT-4 leukemia
# UACC-257 melanoma = test system: UACC-257 melanoma
# RPMI-8226 leukemia = test system: RPMI-8226 leukemia
# LOX IMVI melanoma = test system: LOX IMVI melanoma
# UO-31 renal = test system: UO-31 renal
# SNB-19 CNS = test system: SNB-19 CNS
# CCRF-CEM leukemia = test system: CCRF-CEM leukemia
# MDA-N = test system: MDA-N
structure (smiles),measurement,setting,value
COC(=O)/C=C1/OC(c2ccc(OC)cc2)=C(Cl)C1=O,TGI,KM12 colon,36.4 µM
same,TGI,NCI-H226 lung,51.1 µM
same,TGI,BT-549 breast,26.3 µM
same,TGI,OVCAR-5 ovarian,31.6 µM
same,TGI,A498 renal,49.1 µM
same,TGI,DU-145 prostate,36.6 µM
same,TGI,OVCAR-8 ovarian,28.2 µM
same,TGI,IGROV1 ovarian,34.1 µM
same,TGI,MALME-3M melanoma,30.7 µM
same,TGI,HOP-62 NSCLC,39.2 µM
same,TGI,NCI/ADR-RES ovarian,66.5 µM
same,TGI,786-0 renal,24.4 µM
same,TGI,OVCAR-4 ovarian,30.1 µM
same,TGI,HOP-92 NSCLC,57.5 µM
same,TGI,HCT-116 colon,26.5 µM
same,TGI,OVCAR-3 ovarian,26.3 µM
same,TGI,ACHN renal,31.8 µM
same,TGI,NCI-H522 lung,28.6 µM
same,TGI,UACC-62 melanoma,37.9 µM
same,TGI,M14 melanoma,35.4 µM
same,TGI,SK-OV-3 ovarian,25.2 µM
same,TGI,SNB-75 CNS,37.3 µM
same,TGI,U251 CNS,22.4 µM
same,TGI,SK-MEL-28 melanoma,32.6 µM
same,TGI,SK-MEL-2 melanoma,33.6 µM
same,TGI,COLO 205 colon,23.7 µM
same,TGI,SF-295 CNS,43.4 µM
same,TGI,HL-60(TB) leukemia,12.2 µM
same,TGI,A549 NSCLC,56.4 µM
same,TGI,NCI-H23 lung,34.9 µM
same,TGI,RXF 393 renal,31.7 µM
same,TGI,CAKI-1 renal,27 µM
same,TGI,T-47D breast,36.6 µM
same,TGI,SF-268 CNS,36.8 µM
same,TGI,SR leukemia,9.53 µM
same,TGI,PC-3 prostate,28.9 µM
same,TGI,SW-620 colon,28.1 µM
same,TGI,MCF7 breast,25 µM
same,TGI,MDA-MB-231 breast,26.2 µM
same,TGI,HT29 colon,36.5 µM
same,TGI,TK-10 renal,40.1 µM
same,TGI,SF-539 CNS,41 µM
same,TGI,EKVX NSCLC,39.4 µM
same,TGI,SK-MEL-5 melanoma,27.2 µM
same,TGI,SN12C renal,40.4 µM
same,TGI,HCT-15 colon,33.9 µM
same,TGI,HCC-2998 colon,41.1 µM
same,TGI,MDA-MB-435,30.4 µM
same,TGI,HS 578T breast,84 µM
same,TGI,NCI-H460 lung,42.9 µM
same,TGI,K-562 leukemia,11.3 µM
same,TGI,MOLT-4 leukemia,12.3 µM
same,TGI,UACC-257 melanoma,49.6 µM
same,TGI,RPMI-8226 leukemia,13.6 µM
same,TGI,LOX IMVI melanoma,21.2 µM
same,TGI,UO-31 renal,37.7 µM
same,TGI,SNB-19 CNS,52.8 µM
same,TGI,CCRF-CEM leukemia,17.7 µM
same,TGI,MDA-N,32.7 µM
BrCC[N+]12CC[N+](CCBr)(CC1)C2,TGI,KM12 colon,> 100 µM
same,TGI,NCI-H226 lung,> 100 µM
same,TGI,BT-549 breast,> 100 µM
same,TGI,OVCAR-5 ovarian,> 100 µM
same,TGI,A498 renal,> 100 µM
same,TGI,DU-145 prostate,> 100 µM
same,TGI,OVCAR-8 ovarian,> 100 µM
same,TGI,IGROV1 ovarian,> 100 µM
same,TGI,MALME-3M melanoma,> 100 µM
same,TGI,HOP-62 NSCLC,> 100 µM
same,TGI,NCI/ADR-RES ovarian,> 100 µM
same,TGI,786-0 renal,> 100 µM
same,TGI,OVCAR-4 ovarian,> 100 µM
same,TGI,HOP-92 NSCLC,> 100 µM
same,TGI,HCT-116 colon,> 100 µM
same,TGI,OVCAR-3 ovarian,> 100 µM
same,TGI,ACHN renal,> 100 µM
same,TGI,NCI-H522 lung,> 100 µM
same,TGI,UACC-62 melanoma,> 100 µM
same,TGI,M14 melanoma,> 100 µM
same,TGI,SK-OV-3 ovarian,> 100 µM
same,TGI,SNB-75 CNS,> 100 µM
same,TGI,U251 CNS,> 100 µM
same,TGI,SK-MEL-28 melanoma,> 100 µM
same,TGI,SK-MEL-2 melanoma,> 100 µM
same,TGI,COLO 205 colon,> 100 µM
same,TGI,SF-295 CNS,> 100 µM
same,TGI,HL-60(TB) leukemia,> 100 µM
same,TGI,A549 NSCLC,> 100 µM
same,TGI,NCI-H23 lung,> 100 µM
same,TGI,RXF 393 renal,> 100 µM
same,TGI,CAKI-1 renal,> 100 µM
same,TGI,T-47D breast,> 100 µM
same,TGI,SF-268 CNS,> 100 µM
same,TGI,SR leukemia,> 100 µM
same,TGI,PC-3 prostate,> 100 µM
same,TGI,SW-620 colon,> 100 µM
same,TGI,MCF7 breast,> 100 µM
same,TGI,MDA-MB-231 breast,> 100 µM
same,TGI,HT29 colon,> 100 µM
same,TGI,TK-10 renal,> 100 µM
same,TGI,SF-539 CNS,> 100 µM
same,TGI,EKVX NSCLC,> 100 µM
same,TGI,SK-MEL-5 melanoma,> 100 µM
same,TGI,SN12C renal,> 100 µM
same,TGI,HCT-15 colon,> 100 µM
same,TGI,HCC-2998 colon,> 100 µM
same,TGI,MDA-MB-435,> 100 µM
same,TGI,HS 578T breast,> 100 µM
same,TGI,NCI-H460 lung,> 100 µM
same,TGI,K-562 leukemia,> 100 µM
same,TGI,MOLT-4 leukemia,> 100 µM
same,TGI,UACC-257 melanoma,> 100 µM
same,TGI,RPMI-8226 leukemia,> 100 µM
same,TGI,LOX IMVI melanoma,> 100 µM
same,TGI,UO-31 renal,> 100 µM
same,TGI,SNB-19 CNS,> 100 µM
same,TGI,CCRF-CEM leukemia,> 100 µM
same,TGI,MDA-N,> 100 µM
